In patent publication US12071416B2, “Prodrugs of 4-( (1R, 3S)-6-chloro-3-phenyl-2, 3-dihydro-1H-inden-1-yl)-1,2, 2-trimethylpiperazine and 4-( (1R, 3S)-6-chloro-3-(phenyl-D5)-2, 3-dihydro-1H-inden-1-yl)-2, 2-dimethyl-1 (methyl-D3) piperazine” (H. Lundbeck A/S, priority 2018, dated 2024) one finds half-life data, which are given here for four compounds.

Where two headings read alike, the source gives them in different places.

The data set in a line: Plasma stability assay. The class given is in vitro ADME, human. Here is the method: Frozen human plasma (stored at −80° C.) was thawed in a water bath followed by centrifugation at 3200×g for 5 min to remove debris. The pH value of the supernatant was then measured and adjusted to 7.4±0.1 by adding 1% phosphoric acid or 1 N sodium hydroxide.
For each test compound, 2 microL of dosing solution (50 microM for test compounds and 100 microM for positive control; propantheline bromide) were spiked into 98 microL of blank plasma to achieve a final concentration of 1 microM test compound and 2 microM positive control.
The test compounds and positive control were incubated in duplicate with human plasma (final DMSO concentration <1%) in a water bath at 37° C. at six different time points (0, 0.5, 1, 2, 4 and 6 hr). At each corresponding time point the incubations were terminated by adding appropriate volume of quenching solution to stop the reaction.
Afterwards, the plasma samples were briefly vortexed and subsequently centrifuged at 3200×g for 20 min. The supernatant was transferred into a 96-well plate and diluted with 200 microL of ultrapure water in the ratio of 1:2 prior to LC-MS/MS analysis. The peak area ratios (PAR) of analyte/internal standard was used to semi-quantitatively determine the concentration of test compounds and control compound. The percentage of test compound remaining at the individual time points relative to the 0 minute sample was reported.
In the determination of in vitro elimination constant, ke, of the parent drug and controls, the analyte/internal standard peak area ratios were converted to percentage remaining with the following equation: […]
The percentage formation of metabolite was calculated by the analyte/internal standard peak area ratios versus T0 (absolute) of metabolite drug and converted to percentage.
The half-life (T1/2) of parent drug and control compounds were calculated from a log linear plot of analyte/internal standard peak area ratios versus time (T1/2=0.693/ke).
Compounds 1a2, 1b2, 2a2, and 2b2 were incubated in human plasma as described above and half-lives of 0.5-1.5 h were determined with the formation of 15-35% of 4-((1R,3S)-6-chloro-3-phenyl-2,3-dihydro-1H-inden-1-yl)-1,2,2-trimethylpiperazine and 4-((1R,3S)-6-chloro-3-(phenyl-d5)-2,3-dihydro-1H-inden-1-yl)-2,2-dimethyl-1-(methyl-d3)piperazine, respectively.

Setting [1] is: human plasma, pH 7.4, 37° C., 1 microM test compound, 0-6 hr, LC-MS/MS, read-out: half-life (T1/2) in human plasma.

Consider `CC(C)(C)C(=O)OC[N@+]1(C)CCN([C@@H]2C[C@@H](c3ccccc3)c3ccc(Cl)cc32)CC1(C)C.[Cl-]` (single isomer, unassigned) [Compound 1a2], for which the half-life at 1 microM under setting [1] was 0.5 to 1.5 h.

Regarding `[2H]c1c([2H])c([2H])c([C@@H]2C[C@@H](N3CC[N@@+](COC(=O)C(C)(C)C)(C([2H])([2H])[2H])C(C)(C)C3)c3cc(Cl)ccc32)c([2H])c1[2H].[Cl-]` (single isomer, unassigned) [Compound 2b2], where the note is “human, plasma, pH 7.4”, the half-life at 1 microM lay within 0.5 to 1.5 h.

As to `CC(C)(C)C(=O)OC[N@@+]1(C)CCN([C@@H]2C[C@@H](c3ccccc3)c3ccc(Cl)cc32)CC1(C)C.[Cl-]` (single isomer, unassigned) [Compound 1b2], the half-life at 1 microM (human, plasma, pH 7.4) fell in the range of 0.5 to 1.5 h.

As for `[2H]c1c([2H])c([2H])c([C@@H]2C[C@@H](N3CC[N@+](COC(=O)C(C)(C)C)(C([2H])([2H])[2H])C(C)(C)C3)c3cc(Cl)ccc32)c([2H])c1[2H].[Cl-]` (single isomer, unassigned) [Compound 2a2], under setting [1], the half-life at 1 microM was in the range of 0.5 to 1.5 h.
